Molecular target: Alcohol dehydrogenase (Equus caballus, UniProt P00327+P00328)
Assay: Inhibition constant was evaluated against horse liver alcohol dehydrogenase

In order of falling Inhibition constant:
1. Nc1ncnc2c1ncn2CCCS(=O)(=O)O  4.9 mM
2. Nc1ncnc2c1ncn2CCS(=O)(=O)O  4.3 mM
3. Nc1ncnc2c1ncn2C1O[C@H](CO)[C@H](S(=O)(=O)O)[C@H]1O (stereo partly specified)  1.2 mM
4. COP(=O)(O)OC[C@H]1OC(n2cnc3c(N)ncnc32)[C@H](O)[C@@H]1O (stereo partly specified)  0.44 mM
5. Nc1ncnc2c1ncn2C1O[C@H](CS(=O)(=O)O)[C@@H](O)[C@H]1O (stereo partly specified)  0.18 mM
6. Nc1ncnc2c1ncn2[C@@H]1O[C@H](COP(=O)(O)O)[C@@H](O)[C@H]1O [ADENOSINE PHOSPHATE]  0.038 mM
